Data published in patent US20160272627A1, “POLYMORPHIC FORMS OF SUVOROXANT” (priority 2012, published 2016).

Tests used:
Format in all cases: physicochemical
[1] = Slurrying of Form A in solvents (Examples 26 to 38); conditions: slurrying in few solvents (Examples 26 to 38), 27° C., 17-24 hours
Method: Suvorexant Form-A (500 mg) and methanol (20 ml) were introduced in 100 ml round bottom flask. The heterogeneous mixture so obtained was stirred at 27° C. for 17 hours and the solid substance was then filtered under vacuum. The product was dried at 60° C. in air tray drier to obtain Form B.
The process of example 26 was repeated wherein methanol was replaced by following solvents to obtain Form B: […]

[2] = Slurry of Form B in water at about 80° C., solid analysed with XRD; conditions: water slurry at about 80° C. for about 1 hour, filtered at 80° C.
Method: (§1) All PXRD data reported herein are obtained using a Bruker AXS D8 Advance Powder X-ray Diffractometer or a PANalytical X-ray Diffractometer, using copper Kα radiation wavelength 1.5418 Å.
Suvorexant Form B (500 mg) and water (10 ml) were introduced in round bottom flask. The heterogeneous mixture so obtained was slurried with stirring at about 80° C. for about 1 hour and the solid substance was then filtered under vacuum at 80° C. The filtered solid was analyzed after 1 hour and 4 hours. The solid obtained after 1 hour and 4 hours were Form B up on analysis with XRD.

[3] = Slurry of Form B in water at about room temperature, solid analysed with XRD
Method: as §1
Suvorexant Form B (500 mg) and water (10 ml) were introduced in round bottom flask. The heterogeneous mixture so obtained was slurried with stirring at about room temperature for about 1 hour. The heterogeneous mixture was divided in to two parts. The first part was filtered under vacuum. The filtered solid was analyzed after 2 hour and 4 hours. The solid obtained after 2 hour and 4 hours were Form B up on analysis with XRD. The second part was stirred over night at room temperature and then filtered under vacuum. The solid obtained from second part was Form B up on analysis with XRD.

| SMILES | polymorphic form conversion up on slurrying [1] | polymorphic form of the solid up on analysis with XRD ([2]; filtered solid analyzed after 1 hour) | polymorphic form of the solid up on analysis with XRD ([2]; filtered solid analyzed after 4 hours) | polymorphic form of the solid up on analysis with XRD ([3]; water slurry at about room temperature for about 1 hour, first part filtered, filtered solid analyzed after 2 hour) | polymorphic form of the solid up on analysis with XRD ([3]; water slurry at about room temperature for about 1 hour, first part filtered, filtered solid analyzed after 4 hours) | polymorphic form of the solid up on analysis with XRD ([3]; water slurry, second part stirred over night at room temperature, then filtered) |
| --- | --- | --- | --- | --- | --- | --- |
| Cc1ccc(-n2nccn2)c(C(=O)N2CCN(c3nc4cc(Cl)ccc4o3)CC[C@H]2C)c1 [Form A, 5-chloro-2-{(5R)-5-methyl-4-[5-methyl-2-(2H-1,2,3-triazol-2-yl)benzoyl]-1,4-diazepan-1 yl}-1,3-benzoxazole] | converted in to Form B |  |  |  |  |  |
| Cc1ccc(-n2nccn2)c(C(=O)N2CCN(c3nc4cc(Cl)ccc4o3)CC[C@H]2C)c1 [Suvorexant Form B, 5-chloro-2-{(5R)-5-methyl-4-[5-methyl-2-(2H-1,2,3-triazol-2-yl)benzoyl]-1,4-diazepan-1 yl}-1,3-benzoxazole] |  | Form B | Form B | Form B | Form B | Form B |
